Data set [1] concerns lac promoter in BL21 cells (pEC-GFP). The data set can be described thus: IPTG induction of GFP from lac promoter (pEC-GFP) in BL21 cells. In kind it is cell-based, E. coli. The note with it: 0.01 mM and 0.1 mM IPTG, 24 hours.
Data set [2] concerns synthetic cyn promoter (pCyn-v2-GFP) in E. coli BW25113-Wt.
Data set [3] deals with E. coli cells. The note with it: LB media, 37° C., OD600.
In data set [4] the test system is cyn promoter/operator regulated by cynR (pCyn-v1-GFP). Description: GFP expression from pCyn-v1-GFP (native cyn promoter) induced with cyanate or azide, flow cytometry and bulk lysate fluorescence. In kind it is cell-based, E. coli. To be noted: 1 mM inducer.

In the case of `CC(C)S[C@@H]1O[C@H](CO)[C@H](O)[C@H](O)[C@H]1O` [IPTG], the “GFP expression at lower inducer concentrations over time” value in data set [1] is “GFP expression increased with time and reached maximum after 24 hours”.

With `[N-]=[N+]=[N-]` [sodium azide], in data set [2], the “azide concentration until which GFP expression increased” value was 1 mM and the “detection limit of the synthetic promoter for azide” value is > 10 µM. In data set [3], the “azide amount showing dramatic influence on the growth of the cells” value is listed as > 5 mM.

`N#CO` [sodium cyanate]: in data set [4] (BW25113 wildtype, 19 hours, flow cytometry), the “GFP fluorescence of induced cells compared to uninduced control” value is listed as “did not result in any GFP expression”. Besides, the “GFP expression of induced cells” value in data set [4] (ΔcynS strain (BW25113-sCB1)) was “recovered the GFP expression”.

(Values after US12655461B2 (priority 2020, dated 2026).)
